Test results reported in US12371454B2, “Cyclic peptide compound having Kras inhibitory action” (priority 2019, dated 2025).
Starred links: 1 amine or outer side, 2 acyl side, 3 side chain; linkers in the order of their positions; H or OH if unused. Positions of bridges follow the written chain, without caps; N, C: chain ends. Non-standard residues stand in square brackets, D forms with d. Residues, ends and D or L forms follow the SMILES beside them. *: point of attachment. hPhe(3-Cl-4-CF3) = N[C@@H](CCc1ccc(C(F)(F)F)c(Cl)c1)C(=O)O; NMePhe(2-CF3) = CN[C@@H](Cc1ccccc1C(F)(F)F)C(=O)O; Piperazinyl(4-(3-oxetanyl)) = C1OCC1N1CCN(*)CC1; NMePhe(3-Me) = CN[C@@H](Cc1cccc(C)c1)C(=O)O; hPhe(4-Cl) = N[C@@H](CCc1ccc(Cl)cc1)C(=O)O; NMedβ3hAla = C[C@H](CC(=O)[*:2])N(C)[*:1]; NMeNva(5,5-F2) = CN[C@@H](CCC(F)F)C(=O)O; NMePhe(2-F) = CN[C@@H](Cc1ccccc1F)C(=O)O; NMeGly(cPent) = CN[C@H](C(=O)O)C1CCCC1; NMeCha = CN[C@@H](CC1CCCCC1)C(=O)O; NMeChg = CN[C@H](C(=O)O)C1CCCCC1; NMeD = CN[C@@H](CC(=O)O)C(=O)O; NMeL = CN[C@@H](CC(C)C)C(=O)O; Oxazolidin(3-yl) = C1CN(*)CO1; NMeV = CN[C@H](C(=O)O)C(C)C; NMeA = CN[C@@H](C)C(=O)O; Piperidide = C1CCN(*)CC1; Ac5c = NC1(C(=O)O)CCCC1; Aze = O=C(O)[C@@H]1CCN1; Sar = CNCC(=O)O

How the values were obtained:
[1] = target: T1, Kras and SOS1 (biotin-tagged human Kras loaded with GDP, His-tagged human SOS1) (Homo sapiens, UniProt P01116, G12D); experiment: Protein-protein interaction inhibition between Kras and SOS1 (KrasGl2D-SOS PPI) using AlphaScreen; type: binding; settings: AlphaScreen; biotin-tagged human Kras loaded with GDP, His-tagged human SOS1; read-out: KRAS G12D-SOS PPI IC50
T1 construct: made in house; host or cells: E. coli (stated for Kras only)
T1 sequence (P01116 1-188 isoform P01116-2 G12D): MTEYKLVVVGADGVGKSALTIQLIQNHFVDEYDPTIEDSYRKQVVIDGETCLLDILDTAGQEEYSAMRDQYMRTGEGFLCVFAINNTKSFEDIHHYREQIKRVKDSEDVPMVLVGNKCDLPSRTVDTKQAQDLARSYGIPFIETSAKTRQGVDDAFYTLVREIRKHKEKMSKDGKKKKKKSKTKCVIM
Method in brief: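 Kras was produced in E. coli, purified, then loaded with GDP. It was paired via streptavidin acceptor beads with His-SOS1 held on nickel donor beads, and proximity signal at 520-620 nm was read after 680 nm illumination.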

[2] = system: Human pancreatic cancer cell line AsPC-1; experiment: Measurement of AsPC-1 cell growth inhibition (AsPC-1 CGI); type: cell-based; settings: 96 h
Method in brief: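 AsPC-1 cells in 15% FBS RPMI-1640 were exposed to test compound for 96 hours at 37° C, with CellTiter-Glo as endpoint.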

CC[C@H](C)[C@@H]1NC(=O)[C@H](CCC(F)F)N(C)C(=O)C[C@@H](C(=O)N2CCCCC2)N(C)C(=O)[C@H](C2CCCCC2)N(C)C(=O)C2(CCCC2)NC(=O)[C@@H]2CCCN2C(=O)[C@H](CCc2ccc(C(F)(F)F)c(Cl)c2)NC(=O)CN(C)C(=O)[C@H](CC2CCCCC2)N(C)C(=O)CN(C)C(=O)CN(C)C1=O [Compound 1700] ([NMeNva(5,5-F2)]I[Sar][Sar][NMeCha][Sar][hPhe(3-Cl-4-CF3)]P[Ac5c][NMeChg][NMeD]-Piperidide; lactam N-11)
IC50 [1]: 0.66 nM
IC50 [2]: 20 to 50 nM

CC[C@H](C)[C@@H]1NC(=O)[C@H](CC(C)C)N(C)C(=O)C[C@@H](C(=O)N2CCCCC2)N(C)C(=O)[C@H](C(C)C)N(C)C(=O)C2(CCCC2)NC(=O)[C@@H]2CCCN2C(=O)[C@H](CCc2ccc(C(F)(F)F)c(Cl)c2)NC(=O)CN(C)C(=O)[C@H](Cc2cccc(C)c2)N(C)C(=O)CN(C)C(=O)CN(C)C1=O [Compound 1626] ([NMeL]I[Sar][Sar][NMePhe(3-Me)][Sar][hPhe(3-Cl-4-CF3)]P[Ac5c][NMeV][NMeD]-Piperidide; lactam N-11)
IC50 [1]: 4.4 nM
IC50 [2]: 100 to 500 nM

CC[C@H](C)[C@@H]1NC(=O)[C@H](CC(C)C)N(C)C(=O)C[C@@H](C(=O)N2CCN(C3COC3)CC2)N(C)C(=O)[C@H](C2CCCCC2)N(C)C(=O)C2(CCCC2)NC(=O)[C@@H]2CCCN2C(=O)[C@H](CCc2ccc(C(F)(F)F)c(Cl)c2)NC(=O)CN(C)C(=O)[C@H](CC2CCCCC2)N(C)C(=O)CN(C)C(=O)CN(C)C1=O [Compound 1284] ([NMeL]I[Sar][Sar][NMeCha][Sar][hPhe(3-Cl-4-CF3)]P[Ac5c][NMeChg][NMeD]-{Piperazinyl(4-(3-oxetanyl))}; lactam N-11)
IC50 [1]: 0.69 nM
IC50 [2]: 100 to 500 nM

CC[C@H](C)[C@@H]1NC(=O)[C@H](CC(C)C)N(C)C(=O)C[C@@H](C(=O)N2CCOC2)N(C)C(=O)[C@H](C2CCCCC2)N(C)C(=O)C2(CCCC2)NC(=O)[C@@H]2CCCN2C(=O)[C@H](CCc2ccc(C(F)(F)F)c(Cl)c2)NC(=O)CN(C)C(=O)[C@H](CC2CCCCC2)N(C)C(=O)CN(C)C(=O)CN(C)C1=O [Compound 1180] ([NMeL]I[Sar][Sar][NMeCha][Sar][hPhe(3-Cl-4-CF3)]P[Ac5c][NMeChg][NMeD]-{Oxazolidin(3-yl)}; lactam N-11)
IC50 [1]: 0.5 nM
IC50 [2]: 50 to 100 nM

CC[C@H](C)[C@@H]1NC(=O)[C@H](CC(C)C)N(C)C(=O)C[C@@H](C(=O)N(C)C)N(C)C(=O)[C@H](C2CCCC2)N(C)C(=O)C2(CCCC2)NC(=O)[C@H](CCC(F)F)N(C)C(=O)[C@H](CCc2ccc(C(F)(F)F)c(Cl)c2)NC(=O)CN(C)C(=O)[C@H](CC2CCCCC2)N(C)C(=O)[C@@H]2CCN2C(=O)[C@H](C)N(C)C1=O [Compound 1907] ([NMeL]I[NMeA][Aze][NMeCha][Sar][hPhe(3-Cl-4-CF3)][NMeNva(5,5-F2)][Ac5c][NMeGly(cPent)][NMeD]-NMe2; lactam N-11)
IC50 [1]: 1.3 nM
IC50 [2]: 20 to 50 nM

CC[C@H](C)[C@@H]1NC(=O)[C@H](CC(C)C)N(C)C(=O)C[C@@H](C)N(C)C(=O)[C@H](C(C)C)N(C)C(=O)C2(CCCC2)NC(=O)[C@@H]2CCCN2C(=O)[C@H](CCc2ccc(C(F)(F)F)c(Cl)c2)NC(=O)CN(C)C(=O)[C@H](Cc2ccccc2C(F)(F)F)N(C)C(=O)CN(C)C(=O)CN(C)C1=O [Compound 1567] (cyclo([Ac5c][NMeV][NMedβ3hAla][NMeL]I[Sar][Sar][NMePhe(2-CF3)][Sar][hPhe(3-Cl-4-CF3)]P))
IC50 [1]: 33 nM
IC50 [2]: 100 to 500 nM

CC[C@H](C)[C@@H]1NC(=O)[C@H](CC(C)C)N(C)C(=O)C[C@@H](C(=O)N2CCCCC2)N(C)C(=O)[C@H](C(C)C)N(C)C(=O)C2(CCCC2)NC(=O)[C@@H]2CCCN2C(=O)[C@H](CCc2ccc(Cl)cc2)NC(=O)CN(C)C(=O)[C@H](CC2CCCCC2)N(C)C(=O)CN(C)C(=O)CN(C)C1=O [Compound 893] ([NMeL]I[Sar][Sar][NMeCha][Sar][hPhe(4-Cl)]P[Ac5c][NMeV][NMeD]-Piperidide; lactam N-11)
IC50 [1]: 21 nM
IC50 [2]: 100 to 500 nM

CC[C@H](C)[C@@H]1NC(=O)[C@H](CC(C)C)N(C)C(=O)C[C@@H](C)N(C)C(=O)[C@H](C(C)C)N(C)C(=O)C2(CCCC2)NC(=O)[C@@H]2CCCN2C(=O)[C@H](CCc2ccc(C(F)(F)F)c(Cl)c2)NC(=O)CN(C)C(=O)[C@H](Cc2ccccc2F)N(C)C(=O)CN(C)C(=O)CN(C)C1=O [Compound 1599] (cyclo([Ac5c][NMeV][NMedβ3hAla][NMeL]I[Sar][Sar][NMePhe(2-F)][Sar][hPhe(3-Cl-4-CF3)]P))
IC50 [1]: 17 nM
IC50 [2]: 100 to 500 nM
